Data reported in PMC6562366 (Molecular Therapy Oncolytics, 2019).

Target: PIM-2 (Homo sapiens, UniProt Q9P1W9)
Assay: radiometric filter-binding kinase assay, recombinant kinase, dose-response
Assay type: biochemical

PIM-2, sequence (Q9P1W9 whole entry): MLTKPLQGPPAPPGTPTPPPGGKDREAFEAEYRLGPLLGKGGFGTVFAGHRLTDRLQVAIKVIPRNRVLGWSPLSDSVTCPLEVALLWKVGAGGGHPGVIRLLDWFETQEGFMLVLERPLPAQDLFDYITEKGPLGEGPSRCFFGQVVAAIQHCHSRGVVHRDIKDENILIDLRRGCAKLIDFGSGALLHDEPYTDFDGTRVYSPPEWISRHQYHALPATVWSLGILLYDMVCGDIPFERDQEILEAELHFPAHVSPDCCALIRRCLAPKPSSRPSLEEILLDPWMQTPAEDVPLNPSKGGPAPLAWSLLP

IC50: 255 µM
SMILES: C/C(O)=C(\C#N)C(=O)Nc1ccc(C(F)(F)F)cc1 [Ter, Teriflunomide]
